Article PMC5694373 (European journal of pharmaceutical sciences : official …, 2017)
Where two headings read alike, the source gives them in different places.

Assays:
[1] = cited from earlier work; for human half-life: reported human half-life simulated in the HFIM
[2] = system: wild-type MX/09 influenza; type: cell-based; conditions: oseltamivir 75 mg Q12 and/or zanamivir 600 mg Q12 exposures, alone or in combination, throughout the study

Molecule	human half-life ([1]; ref Doucette and Aoki, 2001) [h]	effect on viral replication relative to no-treatment control [2]	oral bioavailability ([1]; ref GlaxoSmithKline, 2009)	human half-life ([1]; ref GlaxoSmithKline, 2009) [h]
Oseltamivir carboxylate	8	suppressed the replication of MX/09		
CC(=O)N[C@H]1[C@H]([C@H](O)[C@H](O)CO)OC(C(=O)O)=C[C@@H]1N=C(N)N [Zanamivir, zanamivir]			poor oral bioavailability	2.5
